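Method: 48-hour compound exposure of cells in 96-well plates, five concentrations, linear interpolation of endpoints. GI50 is the concentration that inhibits growth by half. TGI: concentration producing complete growth inhibition.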
Columns and labels:
Experiment in all cases: NCI tumour cell line growth inhibition, 48 h
SW-620 colon = tested on: SW-620 colon
CAKI-1 renal = tested on: CAKI-1 renal
PC-3 prostate = tested on: PC-3 prostate
SN12C renal = tested on: SN12C renal
CCRF-CEM leukemia = tested on: CCRF-CEM leukemia
EKVX NSCLC = tested on: EKVX NSCLC
U251 CNS = tested on: U251 CNS
HCC-2998 colon = tested on: HCC-2998 colon
DMS 273 small cell lung = tested on: DMS 273 small cell lung
DLD-1 colon = tested on: DLD-1 colon
DMS 114 small cell lung = tested on: DMS 114 small cell lung
LXFL 529 NSCLC = tested on: LXFL 529 NSCLC

Structure (SMILES) | GI50 (SW-620 colon) | TGI (SW-620 colon) | GI50 (CAKI-1 renal) | TGI (CAKI-1 renal) | GI50 (PC-3 prostate) | TGI (PC-3 prostate) | GI50 (SN12C renal) | TGI (SN12C renal) | GI50 (CCRF-CEM leukemia) | TGI (CCRF-CEM leukemia) | GI50 (EKVX NSCLC) | TGI (EKVX NSCLC) | GI50 (U251 CNS) | TGI (U251 CNS) | GI50 (HCC-2998 colon) | TGI (HCC-2998 colon) | TGI (DMS 273 small cell lung) | TGI (DLD-1 colon) | TGI (DMS 114 small cell lung) | TGI (LXFL 529 NSCLC)
O=C(CN1N=C(c2ccc(F)cc2)CCC1=O)Nc1nc2ccccc2s1 | > 49.5 µM | > 100 µM | 0.583 µM | 1.76 µM | 9.82 µM | > 100 µM | 15.7 µM | > 100 µM | 0.249 µM | 0.665 µM | 2.82 µM | > 100 µM | 2.08 µM | 4.69 µM | > 100 µM | > 100 µM |  |  |  | 
C[n+]1c2ccccc2nc2c(N)cc(N)cc21 | 10.7 µM | > 100 µM | 0.519 µM | 19 µM | 21.3 µM | > 100 µM | 2.55 µM | 14 µM | 4.63 µM | 48.3 µM | 8.04 µM | > 100 µM | 2.5 µM | > 100 µM | 12.6 µM | 93.2 µM |  |  |  | 
CSc1ccc(C2=NN(C(C)=O)C(c3ccc(-c4ccc(Cl)cc4)o3)C2)cc1 (centres undefined) | 77.7 µM | > 100 µM | 31.1 µM | > 100 µM | 20.1 µM | > 100 µM | 21.7 µM | 40.6 µM | 44.2 µM | > 100 µM | 50.2 µM | > 100 µM | 31.3 µM | > 100 µM | 47.1 µM | > 100 µM |  |  |  | 
O=Cc1ccc2c(c1I)OCO2 |  | > 100 µM |  | > 100 µM |  |  |  | > 100 µM |  | > 100 µM |  | > 100 µM |  | > 100 µM |  | > 100 µM | > 100 µM | > 100 µM |  | 
c1cc(N2CCN(c3ccc(C4=NCCCN4)cc3)CC2)ccc1C1=NCCCN1 | > 62.6 µM | > 100 µM | > 100 µM | > 100 µM | > 52.7 µM | > 100 µM | > 100 µM | > 100 µM | > 61.4 µM | > 100 µM | > 100 µM | > 100 µM | > 74.6 µM | > 100 µM |  | > 45.2 µM |  |  |  | 
O=C(O)c1ccccc1NC(=S)c1ccccc1 |  | > 100 µM |  | > 100 µM |  | > 100 µM |  | > 100 µM |  | > 100 µM |  | > 100 µM |  | > 100 µM |  | 0.0159 µM |  |  |  | 
Cc1cc2c(c(C(N)=O)c1C)-c1cc(Cl)cc(Cl)c1C2=O |  |  |  |  |  |  |  | > 100 µM |  | > 100 µM |  | > 100 µM |  | > 100 µM |  | > 100 µM | > 100 µM | > 100 µM | > 100 µM | > 100 µM
C/C(=N\O)c1cccc(Nc2cc(-n3ccnc3)c3ccccc3n2)c1 | 19.6 µM | 42.1 µM | 11.2 µM | 32.9 µM | 24.8 µM | 76.6 µM | 16.2 µM | 38.2 µM | 24.9 µM | 64.5 µM | 13.2 µM | 28.1 µM | 12.4 µM | 28.7 µM | 17.3 µM | 31.7 µM |  |  |  | 
Cc1cc(C)c(C2CNCc3cc4c(cc32)CNCC4c2c(C)cc(C)cc2C)c(C)c1 (centres undefined) | 3.11 mg/L | 11.5 mg/L | 4.22 mg/L | 13.6 mg/L | 5.67 mg/L | 15.6 mg/L | 2.59 mg/L | 9.63 mg/L | 1.86 mg/L | 5.07 mg/L | 5.97 mg/L | 17.2 mg/L | 2.54 mg/L | 5.59 mg/L | 1.82 mg/L | 3.85 mg/L |  |  |  | 
CN=C1OC2(c3ccccc3)C3=C(OC(=NC)N2C)C(=O)OC3(c2ccccc2)N1C (centres undefined) |  | > 100 µM |  | > 100 µM |  | > 100 µM |  | > 100 µM |  | > 100 µM |  | > 100 µM |  | > 100 µM |  | > 100 µM |  |  |  | 
C[C@@H]1Cc2cc(O)ccc2[C@H]2CC[C@]3(C)/C(=C/COCCN(C)C)CC[C@H]3[C@H]12 (tested in a mixture with another compound) | 0.214 µM | 0.482 µM | 0.213 µM | 0.578 µM | 0.233 µM | 1.3 µM | 0.111 µM | 0.789 µM | 0.159 µM | 0.416 µM | 0.145 µM | 0.472 µM | 0.216 µM | 0.528 µM | 0.448 µM | 1.65 µM |  |  |  | 
C=C1[C@@H](O)O[C@H]2[C@H]1C[C@H](OC(C)=O)[C@]13C(=O)O[C@H]4C[C@](C)(O)[C@H]([C@H]41)C31C=C(C)[C@]2(O)O1 | 29.8 µM | > 100 µM | 0.516 µM | 34.6 µM | 53.3 µM | > 100 µM | 26.6 µM | 95.2 µM | 18.9 µM | > 100 µM |  | 0.0269 µM | 24.2 µM | 64.7 µM | 22.5 µM | 76.2 µM |  |  |  | 
Oc1c(-c2cc(C(F)(F)F)[nH]n2)cc(Cl)c(OCc2ccc(Cl)cc2)c1-c1ccc(Cl)c(C(F)(F)F)c1 | 0.298 µM | 4.15 µM | 0.514 µM | 2.92 µM | 0.171 µM | 5.09 µM | 0.153 µM | 3.31 µM | 0.192 µM | 4.77 µM | 0.795 µM | 5.56 µM | 0.5 µM | 5.76 µM | 0.739 µM | 4.53 µM |  |  |  | 
Cc1ccncc1C(N)=O | > 100 µM | > 100 µM | > 100 µM | > 100 µM | > 100 µM | > 100 µM | > 100 µM | > 100 µM | > 100 µM | > 100 µM | > 100 µM | > 100 µM | > 100 µM | > 100 µM | > 100 µM | > 100 µM |  |  |  | 
COc1ccc2c(-c3ccnc(Nc4cccc(OC(F)(F)F)c4)n3)cnn2n1 | 0.856 µM | 4.84 µM | 0.877 µM | > 9.77 µM | 0.987 µM | > 25 µM | 1.75 µM | > 18.3 µM | 1.09 µM | > 25 µM | 2.87 µM | > 25 µM | 1.08 µM | 5.18 µM | 2.14 µM | 8.82 µM |  |  |  | 
CCN1C(=O)N(CC)C2C1NN=c1s/c(=C\c3ccc(F)cc3)c(=O)n12 (centres undefined) | 0.14 µM | > 100 µM | 0.0722 µM | > 100 µM | 0.217 µM | > 100 µM | 0.615 µM | > 100 µM | 0.265 µM | > 100 µM | 0.396 µM | > 100 µM | 0.241 µM | > 100 µM | 0.319 µM | > 100 µM |  |  |  | 

From PubChem BioAssay (NCI)
